US9364474B2, “Method for treatment of neurologic dysfunction” (MedDEV, Inc., priority 2004, dated 2016)

Assays:
[1] = tested on: patient diagnosed with chronic schizophrenia; assay: Case example: patient with chronic schizophrenia, transdermal reserpine spray (with prior medication history); format: in vivo, human; conditions: prior treatment
[2] = tested on: patient with Autism; assay: Case examples: patients with Autism (ASD), transdermal reserpine (with prior medication history); format: in vivo, human; conditions: for success of prior treatments: ASD Example Three: person, prior treatments tried
Method: The treatment composition is suitably applied in a single daily dose, e.g., 0.01 mg of the MAO-A agonist in 0.05 ml of spray solution applied once every morning.
Prior to administration of the present invention (transdermal reserpine), the patient's parents were provided with an informed consent documenting the potential risks, benefits and alternatives to this treatment. The patient was started on a dose of Reserpine at a 4× dilution resulting in a total dose of 0.01 mg. […] They were also given approximately 1400 mg of Calcium every morning.

[3] = tested on: MAO-A; conditions: Egashira et al (1996); Gnerre et al (2001); cited from earlier work
[4] = biological target: T1, MAO-B (Homo sapiens, UniProt P27338); conditions: Egashira et al (1996); Gnerre et al (2001); cited from earlier work
T1 sequence (P27338 1-520): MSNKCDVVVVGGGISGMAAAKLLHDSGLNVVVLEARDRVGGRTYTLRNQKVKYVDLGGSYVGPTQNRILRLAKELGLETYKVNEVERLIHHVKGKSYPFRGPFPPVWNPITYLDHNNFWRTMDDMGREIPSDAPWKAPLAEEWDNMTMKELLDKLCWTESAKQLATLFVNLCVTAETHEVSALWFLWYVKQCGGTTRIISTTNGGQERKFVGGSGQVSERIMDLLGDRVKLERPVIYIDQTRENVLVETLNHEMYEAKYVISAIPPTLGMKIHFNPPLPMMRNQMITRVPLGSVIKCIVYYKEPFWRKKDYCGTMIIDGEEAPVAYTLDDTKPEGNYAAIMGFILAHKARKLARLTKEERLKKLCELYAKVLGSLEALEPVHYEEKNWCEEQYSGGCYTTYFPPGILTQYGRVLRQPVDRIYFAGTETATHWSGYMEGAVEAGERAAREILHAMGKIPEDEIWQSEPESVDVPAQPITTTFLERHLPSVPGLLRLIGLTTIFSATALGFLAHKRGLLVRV

Row | Structure (SMILES) | activity towards MAO-A [3] | activity towards MAO-B relative to MAO-A [4] | further results
1 | O=C1CCc2ccc(OCCCCN3CCN(c4cccc(Cl)c4Cl)CC3)cc2N1 [Abilify] | – | – | tolerability and efficacy of prior medication ([1]; Schizophrenia Example One): tolerated better but still had many symptoms unresolved
2 | COC(=O)C(c1ccccc1)C1CCCCN1 (stereo not shown) [Ritalin] | – | – | success of prior treatments [2]: none to minimal success
3 | OCCOCCN1CCN(C2=Nc3ccccc3Sc3ccccc32)CC1 [Seroquel] | – | – | success of prior treatments [2]: none to minimal success
4 | CN(C)CCC=C1c2ccccc2CCc2ccccc21 [amitriptyline] | inhibitory activity | clearly more potent selectivity for MAO-B | –
5 | CN(C)CCCN1c2ccccc2CCc2ccc(Cl)cc21 [clomipramine] | inhibitory activity | clearly more potent selectivity for MAO-B | –
6 | CCCC(CCC)C(=O)O [depakote] | – | – | success of prior treatments [2]: none to minimal success; side effects of prior medication ([1]; Schizophrenia Example One: person, discontinued): extremely lethargic and obese
7 | CN(C)CCC=C1c2ccccc2COc2ccccc21 [doxepine] | inhibitory activity | clearly more potent selectivity for MAO-B | –
8 | CNCCC(Oc1ccc(C(F)(F)F)cc1)c1ccccc1 (stereo not shown) [fluoxetine] | inhibitory activity | clearly more potent selectivity for MAO-B | –
9 | COCCCC/C(=N\OCCN)c1ccc(C(F)(F)F)cc1 [fluvoxamine] | inhibitory activity | clearly more potent selectivity for MAO-B | –
10 | CN(C)CCCN1c2ccccc2CCc2ccccc21 [imipramine] | inhibitory activity | clearly more potent selectivity for MAO-B | –
11 | CNCCCC12CCC(c3ccccc31)c1ccccc12 [maprotiline] | inhibitory activity | clearly more potent selectivity for MAO-B | –
12 | COc1ccc2[nH]cc(CCNC(C)=O)c2c1 [melatonin] | – | – | success of prior treatments [2]: none to minimal success
13 | O=C1CC[C@@]2(O)[C@H]3Cc4ccc(O)c5c4[C@@]2(CCN3CC2CC2)[C@H]1O5 [naltrexone] | – | – | success of prior treatments [2]: none to minimal success
14 | CN1Cc2c(N)cccc2C(c2ccccc2)C1 (stereo not shown) [nomifensine] | inhibitory activity | clearly more potent selectivity for MAO-B | –
15 | OCCOCCN1CCN(C2=Nc3ccccc3Sc3ccccc32)CC1 [quetiapine] | – | – | functional benefit of prior medication ([2]; ASD Example One, prior trials at therapeutic doses, only quetiapine of six medications): functional improvements
16 | CCOc1ccccc1OCC1CNCCO1 (stereo not shown) [viloxazine] | inhibitory activity | clearly more potent selectivity for MAO-B | –
17 | CN(C)C/C=C(/c1ccc(Br)cc1)c1cccnc1 [zimeldine] | inhibitory activity | clearly more potent selectivity for MAO-B | –
